Key:
[1] = test system: intersegmental blood vessels (ISVs) of Tg(fli1:EGFP) zebrafish embryos; experiment: Anti-angiogenic activity in Tg(fli1:EGFP) zebrafish embryos; type: in vivo
Procedure: The inhibitory activity of 8b on angiogenesis was examined using embryos of the transgenic zebrafish Tg(fli1:EGFP) line with GFP-labeled endothelial cells, as previously described. Briefly, embryos at the 6–8 hpf stage were exposed to three non-toxic concentrations and incubated at 28 °C by 48 hpf. At 48 hpf, the treated embryos were anesthetized with 0.02% tricaine, imaged under a fluorescence microscope (Olympus BX51, Applied Imaging Corp., San Jose, CA, USA), and analyzed for the development of intersegmental blood vessels (ISVs). The experiment was performed three times using ten embryos per concentration. ISV lengths were measured using ImageJ program, and expressed as mean value with standard deviation. Inhibitory effect of the applied treatment was determined in relation to the control (DMSO-treated) group, arbitrarily set to 100%.

[2] = test system: MDA-MB-231 xenografts in Tg(fli1:EGFP) zebrafish embryos; experiment: Zebrafish MDA-MB-231 xenograft model; type: in vivo; conditions: for reduction of tumor mass vs untreated control: 3 days post injection
Procedure: The human breast carcinoma MDA-MB 231 cell line was cultured in DMEM:Ham’s 12 (1:1) medium (Sigma-Aldrich, St. Louis, MO, USA) supplemented with 10% FBS (Sigma-Aldrich, St. Louis, MO, USA), 100 µg/mL streptomycin, and 100 U/mL penicillin (Sigma-Aldrich, St. Louis, MO, USA), and grown as a monolayer in humidified atmosphere of 95% air and 5% CO2 at 37 °C. Prior to microinjection, the cells were washed once with PBS and trypsinized (0.25% trypsin/0.53 mM EDTA) (Sigma-Aldrich, St. Louis, MO, USA) to obtain a single-cell suspension. After centrifugation at 1200 rpm for 5 min, the cells were resuspended in serum-free DMEM medium and labeled with 2 µM Cell Tracker TM Red CMTPX (Thermo Fisher Scientific) according to the manufacturer’s instructions.
The zebrafish xenografts with human MDA-MB-231 cells were established according to the previously described procedure with slight modification. A day before the microinjections, Tg(fli1:EGFP) embryos kept at 28 °C were manually dechorionated. At the 48 hpf stage, 5 nL of MDA-MB 231 cell suspension containing 150 labeled cells was microinjected into the yolk of anesthetized embryos by a pneumatic picopump (PV820, World Precision Instruments, Sarasota, FL, USA). The exact number of cells was confirmed by dispensing the injected volume onto a microscope slide and by visual counting. After injection, embryos were incubated, to recover, for at least for 60 min at 28 °C, dead embryos were removed, while alive embryos were transferred into 24-well plates containing 1 mL of E3 water and 10 embryos per well. The injected xenografts were treated with the three doses of 8b (3.13, 6.25, and 12.5 µM), and maintained at 31–32 °C by 120 hpf. DMSO (0.25%) was used as a negative control. The survival and development of the xenografted embryos was recorded every day until the end of experiment (3 days post injection = 3 dpi), at which point, anesthetized xenografts were processed by fluorescent microscopy. The tumor size, number of xenografts with disseminated tumor cells in the caudal region, and number of disseminated cells per embryo were determined. The tumor size was determined by the fluorescent images using ImageJ. The experiment was repeated two times using 10 embryos per concentration.

MCF-7 cells = experiment: Wound healing assay; type: cell-based; conditions: Homo sapiens, MCF7, 24 h, read-out: inhibition of wound closure compared to control
Procedure: To determine MCF-7 cell migration properties, 1 × 10^5 cells were seeded in 24-well plates and cultured until confluent. Then, cell monolayers were scratched using a sterile 200 μL pipette tip, and cell cultures were allowed to grow for 24 h under the indicated treatments. At the end of incubation period, culture medium was removed and wells were washed twice with PBS, then, cells were fixed with ice-cold methanol and stained with 0.1% crystal violet. In addition, cell monolayers were fixed and stained just after scratching to represent zero time migration. Finally, cell migration into the scratch area was documented by inverted light microscopy and quantified using NIH ImageJ software.

MDA-MB-231 cells = experiment: Bicameral (transwell) migration assay; type: cell-based, human; conditions: 24 h; 5 μM 8b, 10 μM 9b
Procedure: To determine MDA-MB-231 cell migration and invasion cell capacities, Corning® Costar® Transwell® cell culture inserts with 8.0 μm pore polycarbonate filters (Sigma Aldrich, CLS3464) and Corning™ BioCoat™ Matrigel™ Invasion Chamber with Corning Matrigel Matrix™ cell culture inserts (Thermo fisher scientific, Waltham, MA, USA) respectively were used. Briefly, 6 × 10^4 cells in 200 μL were seeded in the upper chamber and the bottom chamber was filled with 800 μL of medium. After 24 h under indicated treatments, the remaining cells in the upper chamber were gently removed with a cotton swab, moistened with medium, and the inserts were carefully washed twice with 37 °C warmed PBS. Then, attached cells at the bottom side of the membrane were fixed by immersing in ice cold methanol for 2 min and stained with 0.1% crystal violet for 15 min at room temperature. Stained cells were photographed and quantified using NIH ImageJ software.

SMILES | embryos affected in terms of ISV growth (anti-angiogenic phenotype) ([1]; 6.25 µM, 48 hpf) | toxic response in embryos at anti-angiogenic effective doses ([1]; 8b 6.25-50 µM, Suten effective dose 1.56 µM) | ISV inhibition ([1]; 25 and 50 µM, 48 hpf) | number of metastasis per embryo, fold lower than untreated ([2]; 3.13 µM, 3-day treatment) | reduction of number of embryos exhibiting metastases ([2]; 3.13 µM, 3-day treatment) [%] | reduction of tumor mass vs untreated control ([2]; 3.13 µM) [%] | dissemination of MDA-MB-231 cells ([2]; 12.5 µM) | reduction of tumor mass vs untreated control ([2]; 12.5 µM) | ED50 (effective drug concentration reducing tumor mass by 50% in relation to the control) ([2]; 3-day treatment) [µM] | toxic side effects in xenografts ([2]; 3.13, 6.25 and 12.5 µM, 3-day treatment) | inhibition at 10 µM (MCF-7 cells) [%] | anti-migratory property (% compared to control) (MDA-MB-231 cells)
O=C(CCCCCCCN1CCN(C(c2ccccc2)c2ccccc2)CC1)NO [Compound 8b, 8-(4-(diphenylmethyl)-piperazin-1-yl)-N-hydroxyoctanamide] | ~ 60% | did not elicit any toxic response | majority of ISVs were inhibited | up to 9.6 fold | 50 | 56.1 ± 5.2 | completely inhibited | almost complete reduction | 2.67 | no toxic side effects were observed | – | –
O=C(NO)c1ccc(CN2CCN(C(c3ccccc3)c3ccccc3)CC2)cc1 [Compound 9b, 4-(4-(diphenylmethyl)-piperazin-1-ylmethyl)-N-hydroxy-benzamide] | – | – | – | – | – | – | – | – | – | – | 63.9 | did not reduce

From article PMC9785542, “Discovery of 1-Benzhydryl-Piperazine-Based HDAC Inhibitors with Anti-Breast Cancer Activity: Synthesis, Molecular Modeling, In Vitro and In Vivo Biological Evaluation” (Pharmaceutics, 2022)
